Like-named read-outs stand apart in the source and are kept apart here.
How the values were obtained:
topoisomerase II = conditions: for PERCENTAGE OF RELAXED DNA: relaxed DNA with respect to total DNA, pUC 19, 37° C. 15 min
Description: 2. Inhibition test of the relaxation of supercoiled DNA induced by topoisomerase II.
Supercoiled plasmidic DNA (pUC 19, Pharmacia Biotech, Orsay, France, 300 ng) is incubated at 37° C. for 15 min in the presence of calf thymus […] (Gibco-BRL, Paisley, United Kingdom, 7 units) in 20 μl of reaction buffer (Tris-HCl pH 7.9: 10 mM, KCl: 50 mM, NaCl: 50 mM, MgCl2: 5 mM, ATP: 1 mM, EDTA: […], bovine serum albumin: 15 mg/ml) and of a potential inhibitor (prepared in a 50 mM extemporaneous solution in dimethylsulphoxide, then diluted with distilled water in order to obtain a final concentration of 500 μM, 200 μM, 100 μM or 10 μM, not exceeding 1% of dimethylsulphoxide). The reaction is stopped by the addition of 3 μl of a denaturing solution (proteinase K: 500 μg/ml, sodium dodecylsulphate: 1%, EDTA: 20 mM) followed by incubation at 37° C. for 30 min, then 2 μl of a loading buffer (bromophenol blue: 0.3%, sodium hydrogen phosphate: 10 mM, polysucrose Ficoll®-400: 16%) are added and the sample is placed on a 1.2% agarose gel (Sea-Kem-GTG, FMC Bioproducts/Tebu, Perray-en-Yvelines, France) containing 2 μg/ml of chloroquine. The electrophoretic migration is carried out at a voltage of 1V/cm for 20 hours, with recirculation of the electophoresis buffer (Tris-HCl: 36 mM, sodium dihydrogen phosphate: 30 mM, EDTA: 1 mM). The gel is then stained under agitation with 2 μg/ml ethidium bromide, then photographed under ultraviolet light at 312 nm (CCD camera Vilber-Lourmat, Lyon, France). Densitometric analysis (BioProfil image analyzer Vilber-Lourmat, Lyon, France) allows the percentage of relaxed DNA with respect to the total DNA to be expressed, at the chosen concentration of inhibitor.

[1] = molecular target: T1, calf thymus topoisomerase I (Bos taurus, UniProt F1MN93); conditions: for PERCENTAGE OF RELAXED DNA: relaxed DNA with respect to total DNA, pUC 19, 37° C. 15 min
T1 sequence (F1MN93 1-767): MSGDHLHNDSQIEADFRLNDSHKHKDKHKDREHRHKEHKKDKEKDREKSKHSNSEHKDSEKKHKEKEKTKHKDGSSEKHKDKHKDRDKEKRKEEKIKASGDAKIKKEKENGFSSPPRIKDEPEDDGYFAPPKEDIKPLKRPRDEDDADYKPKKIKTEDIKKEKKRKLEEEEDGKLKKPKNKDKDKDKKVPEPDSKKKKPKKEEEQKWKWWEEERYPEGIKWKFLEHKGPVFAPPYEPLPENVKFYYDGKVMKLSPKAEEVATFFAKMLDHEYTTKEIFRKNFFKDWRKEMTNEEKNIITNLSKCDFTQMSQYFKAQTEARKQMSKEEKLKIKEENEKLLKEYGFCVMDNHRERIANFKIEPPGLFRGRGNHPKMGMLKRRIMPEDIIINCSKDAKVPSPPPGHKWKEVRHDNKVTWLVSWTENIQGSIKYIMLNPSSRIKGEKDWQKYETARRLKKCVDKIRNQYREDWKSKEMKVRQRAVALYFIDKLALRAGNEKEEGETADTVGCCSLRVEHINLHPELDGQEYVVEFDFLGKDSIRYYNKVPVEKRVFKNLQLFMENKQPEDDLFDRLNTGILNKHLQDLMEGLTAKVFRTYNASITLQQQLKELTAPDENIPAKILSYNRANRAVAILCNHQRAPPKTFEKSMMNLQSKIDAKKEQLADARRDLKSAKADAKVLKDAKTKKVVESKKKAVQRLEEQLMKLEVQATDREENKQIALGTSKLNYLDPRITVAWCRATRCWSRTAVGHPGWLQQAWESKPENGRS
Description: 1. Inhibition test of the relaxation of supercoiled DNA induced by topoisomerase I.
Supercoiled plasmidic DNA (pUC 19, Pharmacia Biotech, Orsay, France, 300 ng) is incubated at 37° C. for 15 min in the presence of calf thymus topoisomerase I (Gibco-BRL, Paisley, United Kingdom, 1 unit) in 20 μl of reaction buffer (Tris-HCl pH 7.5:50 mM, KCl: 50 mM, DTT: 0.5 mM, MgCl2: 10 mM, EDTA: 0.1 mM, bovine serum albumin: 0.030 mg/ml) and of a potentiel inhibitor (prepared in a 50 mM extemporaneous solution in dimethylsulphoxide, then diluted with distilled water in order to obtain a final concentration of 500 μM, 200 μM, 100 μM or 10 μM, not exceeding 1% of dimethylsulphoxide). The reaction is stopped by the addition of 3 μl of a denaturing solution (proteinase K: 500 μg/ml, sodium dodecylsulphate: 1%, EDTA: 20 mM) followed by incubation at 37° C. for 30 min, then 2 μl of a loading buffer (bromophenol blue: 0.3%, sodium hydrogen phosphate: 10 mM, polysucrose Ficoll®-400: 16%) are added and the sample is placed on a 1.2% agarose gel (Sea-Kem-GTG, FMC Bioproducts/Tebu, Perray-en-Yvelines, France) containing 2 μg/ml of chloroquine. The electrophoretic migration is carried out at a voltage of 1V/cm for 20 hours, with recirculation of the electrophoresis buffer (Tris-HCl: 36 mM, sodium dihydrogen phosphate: 30 mM, EDTA: 1 mM). The gel is then stained under agitation with 2 μg/ml ethidium bromide, then photographed under ultraviolet light at 312 nm (CCD camera Vilber-Lourmat, Lyon, France). Densitometric analysis (BioProfil image analyzer Vilber-Lourmat, Lyon, France) allows the percentage of relaxed DNA with respect to total DNA to be expressed, at the chosen concentration of inhibitor.

[2] = at concentrations greater than 10 μM

Row | SMILES | PERCENTAGE OF RELAXED DNA (topoisomerase II; inhibitor concentration 10 μM) | PERCENTAGE OF RELAXED DNA (topoisomerase II; inhibitor concentration 100 μM) | PERCENTAGE OF RELAXED DNA (topoisomerase II; inhibitor concentration 200 μM) | PERCENTAGE OF RELAXED DNA (topoisomerase II; inhibitor concentration 500 μM) | PERCENTAGE OF RELAXED DNA ([1]; inhibitor concentration 10 μM) | PERCENTAGE OF RELAXED DNA ([1]; inhibitor concentration 100 μM) | PERCENTAGE OF RELAXED DNA ([1]; inhibitor concentration 200 μM) | PERCENTAGE OF RELAXED DNA ([1]; inhibitor concentration 500 μM) | inhibition of topoisomerase I compared with camptothecin [1, 2] | inhibition of topoisomerase II compared with etoposide (topoisomerase II; [2])
1 | COc1cc([C@@H]2c3cc4c(cc3[C@@H](O[C@@H]3O[C@@H]5CO[C@@H](C)O[C@H]5[C@H](O)[C@H]3O)[C@H]3COC(=O)[C@H]23)OCO4)cc(OC)c1O [Etoposide, reference compound] | 92.6 ± 2.5% | 28.5 ± 2.2% | 18.6 ± 1.4% | 12.0 ± 0.8% | – | – | – | – | – | –
2 | CC[C@@]1(O)C(=O)OCc2c1cc1n(c2=O)Cc2cc3ccccc3nc2-1 [Camptothecin] | – | – | – | – | 95.5 ± 1.4% | 64.2 ± 6.1% | 60.6 ± 12.0% | 55.6 ± 8.8% | – | –
3 | CCC(O)(CC(=O)O)c1cc2n(c(=O)c1)Cc1cc3ccccc3nc1-2 (stereo not drawn) [Example 6, 3-Hydroxy-3-(4-oxo-4,6-dihydroindolizino[1,2-b]quinoline-2-yl)pentanoic Acid] | 98.8 ± 0.4% | 9.9 ± 0.7% | 11.5 ± 1.9% | 6.5 ± 1.0% | 95.2 ± 2.8% | 28.5 ± 3.5% | 15.5 ± 3.6% | 10.3 ± 2.8% | better inhibitor of topoisomerase I than camptothecin | better inhibitor of topoisomerase II than etoposide

Reference: patent US6632946B2, “Tetracyclic analogues of camptothecins, their preparation processes, their use as medicaments and the pharmaceutical compositions containing them” (Societe de Conseils de Recherches et d'Applications …, priority 1997, dated 2003)
